Patent US20240252488A1 (KOREA RESEARCH INSTITUTE OF CHEMICAL TECHNOLOGY, priority 2020, published 2024)

Assays:
FADD−/− Jurkat cells = assay: Necroptosis inhibition assay, TNF-α-induced necroptosis (CellTiter-Glo 2.0); assay type: cell-based, human; conditions: TNF-α 15 ng/mL, FADD−/− Jurkat cells; for Necroptosis inhibition assay (Rescue %) 1 μM: compound 1 μM; for Necroptosis inhibition assay (Rescue %) 10 μM: compound 10 μM
Method in brief: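 FADD−/− Jurkat cells preincubated 30 min at room temperature with compound at 0.1, 1 and 10 μM final, then stimulated with TNF-α (15 ng/mL final) for 20–24 h at 37 °C, 5% CO2. Viability read as ATP luminescence; cytotoxicity and necroptosis inhibition rate calculated from luminescence values.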

MLKL [1] = target: T1, MLKL (Homo sapiens, UniProt Q8NB16); assay: MLKL degradation assay in HepG2 cell line (western blot); assay type: cell-based; design: endogenous in cells; host or cells: HepG2 or HaCaT; conditions: cell line not given; for Degradation assay (Degradation %) 1 μM: compound 1 μM; for Degradation assay (Degradation %) 10 μM: compound 10 μM
T1 sequence (Q8NB16 1-471): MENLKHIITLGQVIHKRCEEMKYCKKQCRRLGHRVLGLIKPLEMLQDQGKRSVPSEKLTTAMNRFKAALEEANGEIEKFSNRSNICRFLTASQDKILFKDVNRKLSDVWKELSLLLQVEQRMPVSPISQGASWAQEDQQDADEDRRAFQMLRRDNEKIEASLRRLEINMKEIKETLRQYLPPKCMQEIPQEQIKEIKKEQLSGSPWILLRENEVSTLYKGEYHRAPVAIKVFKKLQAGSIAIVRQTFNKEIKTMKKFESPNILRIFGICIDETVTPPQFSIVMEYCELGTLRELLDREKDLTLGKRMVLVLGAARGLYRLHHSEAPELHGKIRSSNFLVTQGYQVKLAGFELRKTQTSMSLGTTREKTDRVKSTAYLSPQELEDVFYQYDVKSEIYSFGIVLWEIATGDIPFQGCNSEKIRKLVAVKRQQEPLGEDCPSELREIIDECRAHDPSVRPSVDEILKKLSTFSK
Method in brief: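 HepG2 cells were treated 20-24 h at 37 °C with compound at 1 or 10 μM final. RIPA lysates were normalized by BCA, and 10-15 μg protein per lane was resolved by SDS-PAGE. MLKL was detected by western blot with chemiluminescence.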

MLKL [2] = target: T1, MLKL; assay: Measurement of binding affinity with MLKL receptor (competitive binding assay, Kd); design: made in house; host or cells: HEK 293 cell line (T7 phage in E. coli BL21-derived host is also described)
Method in brief: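 Kd from an immobilized-ligand competition format: the DNA-tagged kinase from HEK 293 expression is eluted and quantified by qPCR. Compounds added from 111× DMSO stocks, final DMSO 0.9%.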

| SMILES | Necroptosis inhibition assay (Rescue %) 1 μM (FADD−/− Jurkat cells) [%] | Necroptosis inhibition assay (Rescue %) 10 μM (FADD−/− Jurkat cells) [%] | Degradation assay (Degradation %) 1 μM (MLKL [1]) [%] | Degradation assay (Degradation %) 10 μM (MLKL [1]) [%] | Kd (MLKL [2]) [nM] |
| --- | --- | --- | --- | --- | --- |
| COc1ccc(C(=O)N2CCC(CCN3CCC(CN4CCC(n5cc(-c6cnc(N)c(C(=O)O[C@@H](C(=O)Nc7ccc(F)cc7)c7ccccc7)n6)cn5)CC4)CC3)CC2)cc1N1CCC(=O)NC1=O [TDH-501, (R)-2-((4-fluorophenyl)amino)-2-oxo-1-phenylethyl 3-amino-6-(1-(1-((1-(2-(1-(3-(2,4-dioxotetrahydropyrimidin-1(2H)-yl)-4-methoxybenzoyl)piperidin-4-yl)ethyl)piperidin-4-yl)methyl)piperidin-4-yl)-1H-pyrazol-4-yl)pyrazine-2-carboxylate] | 92.23 | 71.17 | 93.47 | 96.40 | 0.95 |
| COc1ccc(C(=O)N2CCC(C(=O)N3CCC(CCN4CCC(CN5CCC(n6cc(-c7cnc(N)c(C(=O)O[C@@H](C(=O)Nc8ccc(F)cc8)c8ccccc8)n7)cn6)CC5)CC4)CC3)CC2)cc1N1CCC(=O)NC1=O [TDH-502, (R)-2-((4-fluorophenyl)amino)-2-oxo-1-phenylethyl 3-amino-6-(1-(1-((1-(2-(1-(1-(3-(2,4-dioxotetrahydropyrimidin-1(2H)-yl)-4-methoxybenzoyl)piperidine-4-carbonyl)piperidin-4-yl)ethyl)piperidin-4-yl)methyl)piperidin-4-yl)-1H-pyrazol-4-yl)pyrazine-2-carboxylate] | 54.75 | 66.18 | 85.39 | 91.54 | 0.42 |
| COc1ccc(C(=O)N2CCC3(CC2)CC(N2CCC(CN4CCC(n5cc(-c6cnc(N)c(C(=O)O[C@@H](C(=O)Nc7ccc(F)cc7)c7ccccc7)n6)cn5)CC4)CC2)C3)cc1N1CCC(=O)NC1=O [TDH-503, (R)-2-((4-fluorophenyl)amino)-2-oxo-1-phenylethyl 3-amino-6-(1-(1-((1-(7-(3-(2,4-dioxotetrahydropyrimidin-1(2H)-yl)-4-methoxybenzoyl)-7-azaspiro[3.5]nonan-2-yl)piperidin-4-yl)methyl)piperidin-4-yl)-1H-pyrazol-4-yl)pyrazine-2-carboxylate] | 94.80 | 14.61 | 93.09 | – | 0.44 |
| COc1ccc(C(=O)N2CCC3(CC2)CC(N2CCC(CCN4CCC(n5cc(-c6cnc(N)c(C(=O)O[C@@H](C(=O)Nc7ccc(F)cc7)c7ccccc7)n6)cn5)CC4)CC2)C3)cc1N1CCC(=O)NC1=O [TDH-504, (R)-2-((4-fluorophenyl)amino)-2-oxo-1-phenylethyl 3-amino-6-(1-(1-(2-(1-(7-(3-(2,4-dioxotetrahydropyrimidin-1(2H)-yl)-4-methoxybenzoyl)-7-azaspiro[3.5]nonan-2-yl)piperidin-4-yl)ethyl)piperidin-4-yl)-1H-pyrazol-4-yl)pyrazine-2-carboxylate] | 94.61 | 33.71 | 93.87 | 94.41 | 0.23 |
| COc1ccc(C(=O)N2CCC(CN3CCC(CCN4CCC(n5cc(-c6cnc(N)c(C(=O)O[C@@H](C(=O)Nc7ccc(F)cc7)c7ccccc7)n6)cn5)CC4)CC3)CC2)cc1N1CCC(=O)NC1=O [TDH-505, (R)-2-((4-fluorophenyl)amino)-2-oxo-1-phenylethyl 3-amino-6-(1-(1-(2-(1-((1-(3-(2,4-dioxotetrahydropyrimidin-1(2H)-yl)-4-methoxybenzoyl)piperidin-4-yl)methyl)piperidin-4-yl)ethyl)piperidin-4-yl)-1H-pyrazol-4-yl)pyrazine-2-carboxylate] | 102.00 | 76.87 | 90.52 | 94.63 | 0.36 |
| COc1ccc(C(=O)N2CCC(OCCN3CCC(CN4CCC(n5cc(-c6cnc(N)c(C(=O)O[C@@H](C(=O)Nc7ccc(F)cc7)c7ccccc7)n6)cn5)CC4)CC3)CC2)cc1N1CCC(=O)NC1=O [TDH-506, (R)-2-((4-fluorophenyl)amino)-2-oxo-1-phenylethyl 3-amino-6-(1-(1-((1-(2-((1-(3-(2,4-dioxotetrahydropyrimidin-1(2H)-yl)-4-methoxybenzoyl)piperidin-4-yl)oxy)ethyl)piperidin-4-yl)methyl)piperidin-4-yl)-1H-pyrazol-4-yl)pyrazine-2-carboxylate] | 75.45 | 48.09 | 88.53 | 88.65 | 0.6 |
| Nc1ncc(-c2cnn(C3CCN(CC4CCN(CCC5CCN(C(=O)Cc6cccc(NC7=CC(=O)N(C8CCC(=O)NC8=O)C7=O)c6)CC5)CC4)CC3)c2)nc1C(=O)O[C@@H](C(=O)Nc1ccc(F)cc1)c1ccccc1 (stereo partly drawn) [TDH-507, (R)-2-((4-fluorophenyl)amino)-2-oxo-1-phenylethyl 3-amino-6-(1-(1-((1-(2-(1-(2-(3-((1-(2,6-dioxopiperidin-3-yl)-2,5-dioxo-2,5-dihydro-1H-pyrrol-3-yl)amino)phenyl)acetyl)piperidin-4-yl)ethyl)piperidin-4-yl)methyl)piperidin-4-yl)-1H-pyrazol-4-yl)pyrazine-2-carboxylate] | 26.03 | 14.19 | 82.75 | 86.37 | 1.1 |
| COc1ccc(C(=O)N2CCC(C(=O)N3CCC4(CC3)CC(N3CCC(CN5CCC(n6cc(-c7cnc(N)c(C(=O)O[C@@H](C(=O)Nc8ccc(F)cc8)c8ccccc8)n7)cn6)CC5)CC3)C4)CC2)cc1N1CCC(=O)NC1=O [TDH-508, (R)-2-((4-fluorophenyl)amino)-2-oxo-1-phenylethyl 3-amino-6-(1-(1-((1-(7-(1-(3-(2,4-dioxotetrahydropyrimidin-1(2H)-yl)-4-methoxybenzoyl)piperidine-4-carbonyl)-7-azaspiro[3.5]nonan-2-yl)piperidin-4-yl)methyl)piperidin-4-yl)-1H-pyrazol-4-yl)pyrazine-2-carboxylate] | 48.15 | 39.79 | 87.16 | 90.95 | 0.4 |
| Nc1ncc(-c2cnn(C3CCN(CCC4CCN(C5CC6(CCN(C(=O)Cc7cccc(NC8=CC(=O)N(C9CCC(=O)NC9=O)C8=O)c7)CC6)C5)CC4)CC3)c2)nc1C(=O)O[C@@H](C(=O)Nc1ccc(F)cc1)c1ccccc1 (stereo partly drawn) [TDH-509, (R)-2-((4-fluorophenyl)amino)-2-oxo-1-phenylethyl 3-amino-6-(1-(1-(2-(1-(7-(2-(3-((1-(2,6-dioxopiperidin-3-yl)-2,5-dioxo-2,5-dihydro-1H-pyrrol-3-yl)amino)phenyl)acetyl)-7-azaspiro[3.5]nonan-2-yl)piperidin-4-yl)ethyl)piperidin-4-yl)-1H-pyrazol-4-yl)pyrazine-2-carboxylate] | 19.06 | 5.55 | 76.18 | 73.70 | 0.78 |
